“And” between values parts separate entries of the source, which are not always exact repeats. Identical values can stand only once.
Target: T1, AcrAB efflux system (Escherichia coli, UniProt P31224)
T1 construct: endogenous in cells; host or cells: E. coli BL21 (DE3) carrying aspC/proA on pET32
Test: Monatin efflux per dry cell weight after induction of the AcrAB efflux pump with sodium decanoate
Format: cell-based
Protocol: The microbial strain used for the experiment was E. coli BL21 (DE3) : : aspC/proA/pET32 (WO 03091396). The symbol : :, as is known in the art, stands for “transformed.” Example 12 provides a non-limiting exemplary method for transforming a microorganism. For an inoculum, the E. coli strains were grown overnight at 37° C. and 250 rpm in Luria-Bertani (“LB”) medium with 100 μg/mL ampicillin. For the experimental treatments, Trp-1+ glucose medium, a minimal medium that has been used for increased production of tryptophan in E. coli cells (Zeman et al. Folia Microbiol. 35:200-204, (1990)), was prepared as follows. To 800 mL nanopure water the following reagents were added: 2 g (NH4)2SO4 and 13.6 g KH2PO4. The pH was adjusted to 7.0, the volume was increased to 948 mL, and the medium was autoclaved. Following sterilization, 0.2 g MgSO4.7H2O, 0.01 g CaCl2.2H2O, and 0.5 mg FeSO4.7H2O were added to the medium in a 1.8 mL volume followed by addition of 0.2 mL of Neidhardt's micronutrient solution. Neidhardt, F. C., et al., “Culture medium for Enterobacteria,” J. Bacteriol. 119:736-746 (1974). Neidhardt's medium includes (per liter): 0.18 g (NH4)6(MO7)24.4H2O, 1.24 g H3BO3, 0.36 g CoCl2.6H2O, 0.12 g CuSO4 (anhydrous), 0.8 g MnCl2.4H2O, and 0.14 g ZnSO4.7H2O. A 50% glucose solution was prepared separately and sterile-filtered. Forty mL of glucose solution and 10 mL of 1 M 3-Morpholinopropanesulfonic acid (“MOPS”) buffer were added to the base medium (950 mL) for a 1 L final volume. […] Flasks were incubated at 37° C. with agitation at 250 rpm up to induction. […] 0.5 mM pyridoxine hydrochloride, and 0.2 mL of Balch's vitamins (Balch, W. E., et al., “Methanogens: reevaluation of a unique biological group,” Microbiol. Rev. 43:260-296, (1979)) were added at induction and the incubation temperature was lowered to 30° C. following induction. […] Some treatments included 2.5 mM sodium decanoate addition at 3.5 hours following induction. Samples for monatin analysis and dry cell weight determination were taken at 24 and 30 hours. Monatin analysis was done as described in Example 13.
Analyses of mixtures for monatin and tryptophan derived from in vitro or in vivo biochemical reactions were performed using a Waters/Micromass liquid chromatography-tandem mass spectrometry (“LC/MS/MS”) instrument including a Waters 2795 liquid chromatograph with a Waters 996 Photo-Diode Array (PDA) absorbance monitor placed in series between the chromatograph and a Micromass Quattro Ultima triple quadrupole mass spectrometer. LC separations were made using an Xterra MS C8 reversed-phase chromatography column, 2.1 mm×250 mm at 40° C. The LC mobile phase consisted of A) water containing 0.05% (v/v) trifluoroacetic acid and B) methanol containing 0.05% (v/v) trifluoroacetic acid.
The gradient elution was linear from 5% B to 35% B, 0-4 min, linear from 35% B to 60% B, 4-6.5 min, linear from 60% B to 90% B, 6.5-7 min, isocratic at 90% B 7-11 min, linear from 90% B to 95% B, 11-12 min, linear from 95% B to 5% B, 12-13 min, with a 5 min re-equilibration period between runs. The flow rate was 0.25 mL/min, and PDA absorbance was monitored from 200 nm to 400 nm. All parameters of the ESI-MS were optimized and selected based on generation of protonated molecular ions ([M+H]^+) of the analytes of interest, and production of characteristic fragment ions. […]

[1] = 2.5 mM Na decanoate, E. coli BL21 (DE3)::aspC/proA/pET32, single flasks

T1 sequence (P31224 whole entry): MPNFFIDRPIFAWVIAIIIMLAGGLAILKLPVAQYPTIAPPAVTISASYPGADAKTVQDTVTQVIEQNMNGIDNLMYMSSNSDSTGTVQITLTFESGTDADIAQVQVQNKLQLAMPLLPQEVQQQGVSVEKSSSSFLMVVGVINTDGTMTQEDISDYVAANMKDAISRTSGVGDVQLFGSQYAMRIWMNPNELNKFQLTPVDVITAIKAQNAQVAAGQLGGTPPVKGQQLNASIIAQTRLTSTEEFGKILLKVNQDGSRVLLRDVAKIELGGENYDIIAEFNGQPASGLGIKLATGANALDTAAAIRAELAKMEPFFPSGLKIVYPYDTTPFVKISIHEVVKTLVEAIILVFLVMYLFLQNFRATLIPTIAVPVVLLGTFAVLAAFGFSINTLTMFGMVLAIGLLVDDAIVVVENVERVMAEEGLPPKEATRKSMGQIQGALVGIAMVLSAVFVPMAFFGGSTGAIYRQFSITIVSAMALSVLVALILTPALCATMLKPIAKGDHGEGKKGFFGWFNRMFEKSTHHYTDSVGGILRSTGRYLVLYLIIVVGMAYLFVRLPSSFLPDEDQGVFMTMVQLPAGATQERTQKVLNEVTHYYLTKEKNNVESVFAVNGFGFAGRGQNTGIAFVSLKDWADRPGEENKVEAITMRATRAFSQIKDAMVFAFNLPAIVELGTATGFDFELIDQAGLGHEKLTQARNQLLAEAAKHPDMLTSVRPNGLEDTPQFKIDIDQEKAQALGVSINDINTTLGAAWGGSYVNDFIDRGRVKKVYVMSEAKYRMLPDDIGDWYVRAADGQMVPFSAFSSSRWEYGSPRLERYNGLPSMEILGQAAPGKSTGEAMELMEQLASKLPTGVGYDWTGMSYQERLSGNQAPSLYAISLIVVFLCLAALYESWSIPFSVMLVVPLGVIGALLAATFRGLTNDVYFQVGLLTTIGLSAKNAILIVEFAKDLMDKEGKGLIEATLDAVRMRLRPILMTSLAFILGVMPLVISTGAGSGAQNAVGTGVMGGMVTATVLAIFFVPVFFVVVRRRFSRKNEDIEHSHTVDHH
T1 sequence (P02930 23-493, further chain): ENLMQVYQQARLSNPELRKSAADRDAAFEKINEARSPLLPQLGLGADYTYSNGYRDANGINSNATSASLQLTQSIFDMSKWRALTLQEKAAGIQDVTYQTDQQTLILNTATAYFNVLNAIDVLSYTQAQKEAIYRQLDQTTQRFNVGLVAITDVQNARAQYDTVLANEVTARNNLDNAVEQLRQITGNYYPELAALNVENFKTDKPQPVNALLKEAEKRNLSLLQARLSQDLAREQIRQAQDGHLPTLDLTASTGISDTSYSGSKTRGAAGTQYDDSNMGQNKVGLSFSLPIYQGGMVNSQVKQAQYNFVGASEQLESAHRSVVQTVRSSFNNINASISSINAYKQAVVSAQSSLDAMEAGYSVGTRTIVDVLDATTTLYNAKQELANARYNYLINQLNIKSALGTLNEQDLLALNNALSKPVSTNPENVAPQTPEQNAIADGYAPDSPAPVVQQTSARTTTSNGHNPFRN
T1 sequence (P0AE06 25-397, further chain): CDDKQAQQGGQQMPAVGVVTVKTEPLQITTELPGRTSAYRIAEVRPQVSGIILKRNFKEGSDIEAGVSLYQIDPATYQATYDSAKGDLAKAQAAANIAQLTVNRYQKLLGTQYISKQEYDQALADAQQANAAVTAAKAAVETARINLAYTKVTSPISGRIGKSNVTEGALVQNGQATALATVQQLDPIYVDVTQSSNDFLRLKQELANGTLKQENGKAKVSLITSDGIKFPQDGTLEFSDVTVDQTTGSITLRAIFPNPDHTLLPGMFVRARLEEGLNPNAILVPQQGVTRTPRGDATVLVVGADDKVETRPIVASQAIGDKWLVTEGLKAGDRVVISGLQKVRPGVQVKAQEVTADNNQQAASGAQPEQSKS

CCCCCCCCCC(=O)[O-].[Na+] [sodium decanoate]
Monatin/dcw at run hour 24 [1]: 14.7 mg monatin/g dcw and 12.0 mg monatin/g dcw and 17.0 mg monatin/g dcw
Monatin/dcw at run hour 30 [1]: 14.3 mg monatin/g dcw and 13.8 mg monatin/g dcw and 17.4 mg monatin/g dcw
Average monatin/dcw at run hour 24 (2.5 mM Na decanoate, n = 3): 14.6 mg monatin/g dcw
Average monatin/dcw at run hour 30 (2.5 mM Na decanoate, n = 3): 15.2 mg monatin/g dcw
increase in monatin secreted/dry cell weight (2.5 mM sodium decanoate vs no decanoate): Greater than nine fold increase
